Laboratory results from paper PMC12175168, “Refining the Amino Reactivity-Based Identification of Respiratory Sensitizers” (Chemical Research in Toxicology, 2025).
“And” between values parts separate entries of the source, which are not always exact repeats. Equal entries are not always repeated. “Also recorded” adds a separate entry of the source.

What was measured:
[1] = DPRA-like chemoassay with Lys-pNA (24 h percent depletion); conditions: 25 °C, 50-fold excess of test compound
Protocol: (§1) In addition to the kinetic Gly-pNA chemoassay, the reactivity of the 27 compounds toward Gly-pNA and Lys-pNA was determined in terms of percentage depletions after reacting for 24 h at 25 °C employing the following DPRA-like setup: stock solutions for the test compounds were prepared by gravimetrically adding at least 3 mg of the respective compound into a glass vial (total volume 1.8 mL) and subsequent addition of 1 mL ACN. […] The stock solutions for Gly-pNA and Lys-pNA with a final concentration of 1.7 mM were prepared by dissolving the required amount in one of the three aqueous buffer solutions used for this DPRA-like chemoassay: phosphate buffer (80 mM, pH 7.4), phosphate buffer (80 mM, pH 10.2), and ammonium acetate buffer (100 mM, pH 10.2). Glass vials (1.8 mL) were used as reaction vessels.
(§2) In the final reaction mixtures, the concentration of Gly-pNA or Lys-pNA was 0.03 mM, and the test compound was 50 times in excess (1.5 mM). After incubation for 24 h at 25 °C, the free amount of either Gly-pNA or Lys-pNA was determined using the HPLC UV–vis method described for the kinetic Gly-pNA chemoassay. , The percentage depletion of Gly-pNA (D Gly) or Lys-pNA (D Lys) was determined directly from peak areas according to eq 3 Dx[%]=(Axcontrol−Ax/Axcontrol×100)withx=GlyorLys
(§3) In eq , A x and A x ^control are the peak areas of the chromatographic signal of either Gly-pNA (x = Gly) or Lys-pNA (x = Lys) at 315 nm after 24 h incubation with and without test compound, respectively.
(§4) Summary of experimental conditions of the DPRA-like setups used to determine
(§5) DGly, D Lys, and D DPRA data in Table 2 (main text).
(§6) Table S2. Overview of experimental conditions for the DPRA-like setups used to
(§7) determine 24 h percentage depletion rates for the reaction of the test compounds with
(§8) Gly-pNA, Lys-pNA, and the DPRA lysine peptide (literature data).

[2] = ref Krutz et al., Sadekar et al., Ponder et al., Karol et al., Hopkins et al.; cited from earlier work
[3] = DPRA-like chemoassay with Gly-pNA (24 h percent depletion); conditions: PPB pH 7.4, 24 h, 25 °C, 50-fold excess of test compound
Protocol: as §1, §2, §3, §4, §5, §6, §7, §8

[4] = Kinetic Gly-pNA chemoassay (second-order rate constant k Gly); conditions: reaction with Gly-pNA, nominal test compound concentration; for k Gly ± s(k Gly), second-order rate constant: phosphate buffer 80 mM, 25 °C, ≥ values are minimum reactivity; for log k Gly: phosphate buffer;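 as to all read-outs here: Gly-pNA depletion followed over time by chromatographic peak area, with test compound in at least tenfold excess (pseudo-first-order), added from acetonitrile stock, at least three runs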
Protocol: The reactivity of the 27 test compounds toward Gly-pNA was quantified in terms of the second-order reaction rate constant k Gly using our Gly-pNA chemoassay. , In brief, stock solutions of the test compound were freshly obtained every day by gravimetrically adding the required amount into a 10 mL volumetric flask, which was subsequently filled to volume with acetonitrile (ACN). The required amounts of test compounds depended on their reactivity toward Gly-pNA. […] As usual for kinetic studies, fast reacting chemicals are applied at lower concentrations than little reactive candidates. All stock solutions were stored at 25 °C in a climate chamber before first use (ca. 30 min) and for repeating an experiment (max. 6 h). Gly-pNA stock solution (1.69 mM) was obtained by dissolving 3.3 mg Gly-pNA in 10 mL phosphate buffer solution (80 mM) and could be used for several weeks if stored at 4 °C. For all chemoassay experiments, 1.8 mL glass vials were used as reaction batches, which were initially filled with 1070 μL phosphate buffer (80 mM) and 30 μL Gly-pNA stock solution. To start the reaction, 400 μL of the test compound stock solutions was added. […] The time between the start of the reaction and the first analysis was measured with an electronic time clock. All reactions were performed under pseudo-1st order conditions with the electrophile being at least ten times in excess over Gly-pNA.
For these compounds, the minimum reactivity was estimated in terms of k Gly by plotting ln (A Gly ^ t /A Gly ^0) vs reaction time t (with A Gly ^ t and A Gly ^0 being the peak areas under the chromatographic signal for Gly-pNA at time t and at the beginning of the reaction (t = 0)). Linear regression through 0 (at t = 0) and the first measurement point yields slope s (see Figure S1) which is the pseudo-1st order rate constant k Gly ^pseudo that can be converted with the initial test compound concentration in the reactions mixture (c) into k Gly according to eq . 1 kGly=kGlypseudo/c
2 Ln(AGlyt/AGly0)≈−kGly·c·t+0.5·kGly·kloss·c·t^2 Here k loss is the first order rate constant covering all processes contributing to the loss of the test compounds, except the reaction with Gly-pNA. The regression parameter of the linear part of eq (= k Gly·c) is the pseudo-1st order rate constant k Gly ^pseudo and can be converted into k Gly according to eq (see above).
Linear regression of these plots provides slope s, which is again the pseudo-1st order rate constant, k Gly ^pseudo, and can be used to calculate k Gly according to eq . All experiments to determine k Gly have been conducted at least three times.

[5] = Stability assessment of test compounds in aqueous buffers (half-lives)
Protocol: To this end, the test compound was dissolved in 1 mL ACN in a glass vial. […] As reaction batches, 1.8 mL glass vials equipped with 400 μL glass inserts were used and filled with 220 μL of the respective aqueous buffer and 80 μL of the test compound stock solution. The depletion of the test compounds was recorded with the HPLC UV–vis instrument used for the kinetic Gly-pNA chemoassay. , Chromatographic separation of the reaction mixture was achieved using the gradient described for the Gly-pNA chemoassay previously , and an isocratic HPLC method (water/ACN 70:30, both with 0.1 vol % formic acid). The wavelengths used for the detection of the compound and the information on the used chromatographic method are given in the Supporting Information in Table S3.

[6] = tested on: DPRA lysine peptide; set-up: method as in literature; conditions: AAB pH 10.2, 24 h; ref literature; cited from earlier work
[7] = AAB (ammonium acetate buffer) pH 10.2, 24 h
[8] = buffer, pH 7.4, half-lives t 1/2 ± s(t 1/2), PPB (phosphate buffer 80 mM) pH 7.4
[9] = buffer, pH 10.2, half-lives t 1/2 ± s(t 1/2), AAP (ammonium acetate buffer 100 mM) pH 10.2
[10] = buffer, pH 10.2, half-lives t 1/2 ± s(t 1/2), PPB (phosphate buffer 80 mM) pH 10.2
[11] = PPB (phosphate buffer 80 mM) pH 7.4
[12] = aqueous ammonium acetate buffer with acetonitrile, pH 10.2
[13] = aqueous phosphate buffer with acetonitrile, pH 7.4
[14] = aqueous phosphate buffer with acetonitrile, pH 10.2

SMILES	D Lys ± s(D Lys), 24 h percent depletion of Lys-pNA [1, 7]	D Lys ± s(D Lys), 24 h percent depletion of Lys-pNA ([1]; PPB pH 10.2, 24 h)	Classification as potential respiratory sensitizer or non-sensitizer [2]	D Gly ± s(D Gly), 24 h percent depletion of Gly-pNA [3]	k Gly ± s(k Gly), second-order rate constant [4]	log k Gly [4]	half-life [5, 8]	half-life [5, 9]	half-life [5, 10]	D DPRA ± s(D DPRA), depletion of the DPRA lysine peptide [6]	half-lives t 1/2 ± s(t 1/2) [5, 11]	half-life [5, 12]	half-life [5, 13]	half-life [5, 14]	half-lives t 1/2 ± s(t 1/2) ([5]; AAP (ammonium acetate buffer 100 mM) pH 10.2)	half-lives t 1/2 ± s(t 1/2) ([5]; PPB (phosphate buffer 80 mM) pH 10.2)
Cc1c(N=C=O)cccc1N=C=O [A3, 2,6-toluene diisocyanate]	20.7 ± 1.4%	100%	potential respiratory sensitizer	100%	≥20880 ± 695 L mol^–1 min^–1	≥4.32	< 1 min	< 1 min	< 1 min	26.5 ± 0.7%	–	–	–	–	–	–
O=C=Nc1ccc(Cc2ccc(N=C=O)cc2)cc1 [A4, 4,4′-methylene diphenyl diisocyanate]	22.9 ± 4.4%	100%	potential respiratory sensitizer	100%	≥20015 ± 4486 L mol^–1 min^–1	–	5.9 ± 1 min	< 1 min	4.6 ± 0.3 min	23.0 ± 6.2%	–	–	–	–	–	–
O=C=Nc1ccccc1 [A5, phenyl isocyanate]	10.2 ± 0.7%	100%	potential respiratory sensitizer	100%	≥2368 ± 309 L mol^–1 min^–1	≥3.37	< 1 min	< 1 min	< 1 min	48.4 ± 1.1%	–	–	–	–	–	–
O=C=NCCCCCCN=C=O [B1, hexamethylene diisocyanate]	23.3 ± 0.3%	98.7 ± 2.2%	potential respiratory sensitizer	100%	451 ± 33 L mol^–1 min^–1	2.65	–	–	–	41.6 ± 7.3%	–	–	–	–	–	–
CC1(C)CC(N=C=O)CC(C)(CN=C=O)C1 (stereo not shown) [B2, isophorone diisocyanate]	21.5 ± 0.3%	100%	potential respiratory sensitizer	100%	256 ± 6 L mol^–1 min^–1	2.41	–	–	–	28.0%	–	–	–	–	–	–
O=C1OC2(c3ccc(O)cc3Oc3cc(O)ccc32)c2ccc(N=C=S)cc21 [B3, fluorescein isothiocyanate]	56.5 ± 0.3%	100%	potential respiratory sensitizer	100%	15.1 ± 2.6 L mol^–1 min^–1	–	–	8.21 ± 0.18 min	3500 ± 236 min	61.1%	no depletion	–	–	–	–	–
O=C1OC(=O)c2ccccc21 [C1, phthalic anhydride]	22.6 ± 7.4%	100%	potential respiratory sensitizer	100%	≥22480 ± 1197 L mol^–1 min^–1	–	–	–	–	69.2 ± 22.0%	–	< 1 min	89.5 ± 4.1 min	< 1 min	–	–
O=C(O)c1ccc2c(c1)C(=O)OC2=O [C2, trimellitic anhydride]	15.2 ± 0.6%	100%	potential respiratory sensitizer	100%	≥22271 ± 1975 L mol^–1 min^–1	4.35	–	–	–	59.9 ± 22.0%	–	< 1 min	110 ± 10 min	1 min	–	–
O=C1OC(=O)c2c(Cl)c(Cl)c(Cl)c(Cl)c21 [C3, tetrachlorophthalic anhydride]	11.5 ± 1.8%	99.2 ± 0.7%	potential respiratory sensitizer	100%	≥9816 ± 858 L mol^–1 min^–1	3.99	24.3 ± 0.6 min	< 1 min	< 1 min	83.5 ± 0.7%	–	–	–	–	–	–
O=C1OC(=O)C2CCCCC12 (stereo not shown) [D1, hexahydrophthalic anhydride]	12.5 ± 0.5%	100%	potential respiratory sensitizer	100%	2900 ± 110 L mol^–1 min^–1	3.46	–	–	–	56.4 ± 29.4%	–	< 1 min	4.36 ± 0.36 min	1.2 min	–	–
O=[N+]([O-])c1ccc(S(=O)(=O)O)c([N+](=O)[O-])c1 [E5, 2,4-dinitrobenzenesulfonic acid]	0.9 ± 0.1%	0%	non-sensitizer	5.9% and 5.9 ± 0.3%	not reactive	–	–	–	–	27.4%	no depletion	–	–	–	did not show any significant signal depletion; also recorded: no depletion	no depletion
